# According to US8344180B2, “Hydrazine amide derivative” (Shionogi & Co., Ltd., priority 2006, dated 2013):
# Biological target: T1, human NPY Y5 receptor (Homo sapiens, UniProt Q15761)
# T1 construct: expressed in transfected cells; membranes used
# T1 sequence (Q15761 1-445): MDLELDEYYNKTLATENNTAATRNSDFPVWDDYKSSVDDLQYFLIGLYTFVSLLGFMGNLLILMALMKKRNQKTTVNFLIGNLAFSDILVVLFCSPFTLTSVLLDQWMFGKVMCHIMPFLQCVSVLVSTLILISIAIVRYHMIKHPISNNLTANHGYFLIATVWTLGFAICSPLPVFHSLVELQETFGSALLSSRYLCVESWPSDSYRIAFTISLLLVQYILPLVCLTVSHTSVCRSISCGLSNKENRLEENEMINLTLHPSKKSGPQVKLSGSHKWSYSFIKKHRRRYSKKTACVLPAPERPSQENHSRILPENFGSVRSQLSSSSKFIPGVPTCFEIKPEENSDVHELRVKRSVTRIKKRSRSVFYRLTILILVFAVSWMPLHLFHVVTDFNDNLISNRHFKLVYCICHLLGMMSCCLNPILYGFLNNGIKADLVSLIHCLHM
# Assay: Affinity for NPY Y5 receptor ([125I] peptide YY binding to CHO cell membranes)
# Conditions: membranes from CHO cells expressing NPY Y5 receptor; [125I] peptide YY 60 pM; 25° C., 2 hours; read-out: 50% inhibitory concentration of the test-compound against the specific peptide YY binding (IC50 value)
# Excerpt: Experiment 1: Affinity for NPY Y5 Receptor
# cDNA sequence encoding a human NPY Y5 receptor (WO96/16542) was cloned in a vector pME18S (Takebe et al. Mol. Cell. Biol. 8, 8957). The obtained expression vector was transfected into CHO cells as a host by using Lipofect AMINE reagent (Trademark, Gibco BRL Co., Ltd.) according to the instruction manual. The cells that stably express NPY Y5 receptor were obtained.
# The membranes prepared from the CHO cells expressing NPY Y5 receptor, the compound of the present invention and 30,000 cpm [^125I] peptide YY (60 pM of final concentration: Amersham) were incubated in the assay buffer (20 mM HEPES-Hanks buffer containing 0.1% bovine serum albumin, pH 7.4) at 25° C. for 2 hours, and then the membrane was filtered from the mixture through a glassfilter (GF/C) presoaked with 1% polyethyleneimine. After washing with 50 mM Tris-HCl buffer (pH 7.4), radioactivity retained on the filters was quantified with a gamma counter. Nonspecific binding was defined as the amount of radioactivity bound to the membranes after incubation in the presence of 200 nM of peptide YY. The 50% inhibitory concentration of the test-compound against the specific peptide YY binding (IC50 value) was calculated (Inui, A. et al. Endocrinology 131, 2090-2096 (1992)).
row,Structure (SMILES),IC50 [nM]
1,CC(C)(C)S(=O)(=O)N[C@H]1CC[C@H](C(=O)NNc2ccc(Cl)c(Cl)c2)CC1 [Example I-4],2.3
2,CC(C)S(=O)(=O)N[C@H]1CC[C@H](C(=O)NNc2ccc(Cl)c(Cl)c2)CC1 [Example I-8],1.1
3,CC(C)(C)S(=O)(=O)N[C@H]1CC[C@H](C(=O)NNc2cccc3ccccc23)CC1 [Example I-17],0.88
4,CC(C)(C)S(=O)(=O)N[C@H]1CC[C@H](C(=O)NNc2cccc(-c3ccccc3)c2)CC1 [Example I-23],1.12
